One assay relates to osteoclast precursors. Briefly: Osteoclast tartrate-resistant acid phosphatase assay. To be noted: Osteoclast, 7-14 days, RANKL and M-CSF. The assay is classed as cell-based.
Assay [1] deals with unphosphorylated PDGFRβ kinase (uPDGFRβ, Seq. ID No. 3) (Homo sapiens (Human), UniProt P09619). In words: Unphosphorylated PDGFRβ kinase assay (coupled pyruvate kinase/lactate dehydrogenase). The following applies: enzymatic assay, ATP 500 μM. The assay is classed as biochemical. A digest of the protocol: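 Construct residues 557-1106, unphosphorylated, 15.7 nM, with poly E4Y 2.5 mg/mL and 500 μM ATP, Tris pH 7.5, 1% DMSO, 30 °C. ADP coupled to NADH oxidation via PK/LDH, A340 followed 4 h; rate from 1.5-2.5 h versus no-compound control, IC50 from percent-inhibition series.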

Assay [2] concerns the target c-FMS kinase in THP-1 cells (Homo sapiens (Human), UniProt P07333). Briefly: Phospho-FMS ELISA assay in THP-1 cells. The assay is classed as cell-based. The following applies: 4 h compound, M-CSF stimulation 5 min; read-out: pFMS inhibition in THP-1 cells. In general terms: In an ELISA, binding on a coated surface is turned into a signal by an enzyme label.
The next assay concerns M-NFS-60 cells. In words: M-NFS-60 cell proliferation assay (resazurin). To be noted: 67 h incubation. The assay is classed as cell-based. A digest of the protocol:
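Cells kept in medium containing 20 ng/mL mouse recombinant M-CSF. Fluorescence was read at ex 540/em 600 nm, and IC50 was fitted from percent inhibition across a range of inhibitor concentrations.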

We go through two molecules from patent US9133183B2, “Imidazolidinones and analogs exhibiting anti-cancer and anti-proliferative activities” (Deciphera Pharmaceuticals, LLC, priority 2013, dated 2015).

Each structure is given as a SMILES string.

Sequence of c-FMS kinase in THP-1 cells (P07333 20-972): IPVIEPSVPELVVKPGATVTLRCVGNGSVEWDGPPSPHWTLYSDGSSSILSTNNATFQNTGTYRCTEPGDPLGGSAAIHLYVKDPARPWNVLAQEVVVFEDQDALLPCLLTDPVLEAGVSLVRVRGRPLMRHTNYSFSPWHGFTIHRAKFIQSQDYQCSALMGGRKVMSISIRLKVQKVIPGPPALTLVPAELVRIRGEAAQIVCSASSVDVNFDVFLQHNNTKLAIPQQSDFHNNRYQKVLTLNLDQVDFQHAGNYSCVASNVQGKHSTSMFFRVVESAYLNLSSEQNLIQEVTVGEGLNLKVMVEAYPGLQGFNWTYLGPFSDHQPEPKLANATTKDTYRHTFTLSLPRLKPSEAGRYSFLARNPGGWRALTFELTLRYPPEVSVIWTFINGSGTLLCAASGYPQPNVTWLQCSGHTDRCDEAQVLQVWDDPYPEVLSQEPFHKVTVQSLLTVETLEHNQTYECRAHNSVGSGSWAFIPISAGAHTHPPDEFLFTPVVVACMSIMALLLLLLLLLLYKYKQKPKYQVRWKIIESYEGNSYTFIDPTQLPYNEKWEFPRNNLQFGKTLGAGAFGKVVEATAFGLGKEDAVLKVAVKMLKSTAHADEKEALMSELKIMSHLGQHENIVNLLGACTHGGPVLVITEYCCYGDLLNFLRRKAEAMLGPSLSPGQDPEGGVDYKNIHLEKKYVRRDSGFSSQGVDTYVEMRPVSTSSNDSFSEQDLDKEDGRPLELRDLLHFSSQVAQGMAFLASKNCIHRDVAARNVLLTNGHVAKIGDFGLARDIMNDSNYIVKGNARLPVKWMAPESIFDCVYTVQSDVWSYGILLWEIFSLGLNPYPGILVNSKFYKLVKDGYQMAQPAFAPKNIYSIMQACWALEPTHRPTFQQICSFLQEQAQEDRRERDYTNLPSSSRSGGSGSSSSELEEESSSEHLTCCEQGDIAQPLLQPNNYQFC
Sequence of unphosphorylated PDGFRβ kinase (uPDGFRβ, Seq. ID No. 3) (P09619 557-1106): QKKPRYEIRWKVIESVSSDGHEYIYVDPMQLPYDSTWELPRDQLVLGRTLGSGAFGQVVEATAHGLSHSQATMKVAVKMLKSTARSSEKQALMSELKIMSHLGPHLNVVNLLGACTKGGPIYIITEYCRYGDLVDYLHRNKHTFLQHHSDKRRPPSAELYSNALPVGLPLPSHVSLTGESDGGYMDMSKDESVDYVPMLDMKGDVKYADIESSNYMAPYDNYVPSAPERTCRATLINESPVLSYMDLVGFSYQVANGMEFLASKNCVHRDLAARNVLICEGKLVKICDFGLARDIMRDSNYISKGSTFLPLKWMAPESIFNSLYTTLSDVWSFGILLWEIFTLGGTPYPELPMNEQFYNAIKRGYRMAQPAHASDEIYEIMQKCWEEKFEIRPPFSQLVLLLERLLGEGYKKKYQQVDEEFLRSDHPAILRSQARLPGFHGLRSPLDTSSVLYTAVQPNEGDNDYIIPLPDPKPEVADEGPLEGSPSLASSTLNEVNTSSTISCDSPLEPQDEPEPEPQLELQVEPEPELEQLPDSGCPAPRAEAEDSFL

On to `CC(=O)Nc1cc(Oc2ccc(NC(=O)N3CCN(C4CCOCC4)C3=O)nc2)ccn1` [Example 119, N-(5-((2-acetamidopyridin-4-yl)oxy)pyridin-2-yl)-2-oxo-3-(tetrahydro-2H-pyran-4-yl)imidazolidine-1-carboxamide], for which the IC50 fell in the range of 10 to 100 nM in the assay on osteoclast precursors, 100 to 1000 nM in assay [1], 10 to 100 nM in assay [2] and 10 to 100 nM with M-NFS-60 cells.
Consider `CN(C)C(=O)Nc1cc(Oc2ccc(NC(=O)N3CCN(C4CCOCC4)C3=O)nc2)ccn1` [Example 120, N-(5-((2-(3,3-dimethylureido)pyridin-4-yl)oxy)pyridin-2-yl)-2-oxo-3-(tetrahydro-2H-pyran-4-yl)imidazolidine-1-carboxamide], for which the IC50 in the assay with osteoclast precursors is less than 10 nM; in assay [1], 10 to 100 nM; in assay [2] it was 10 to 100 nM; with M-NFS-60 cells, 10 to 100 nM.
